According to patent US20240043473A1, “NOOTROPIC PEPTIDES FOR TREATING LYSOSOMAL STORAGE DISEASES” (Phoenix Nest Inc., priority 2021, published 2024):
Entries after “also recorded” stand apart in the source; their conditions may differ. No end group written: not given here.

Legend:
Type in all cases: in vivo, mouse
[1] = test system: Hgsnat^P304L and Hgsnat-Geo MPS IIIC mice; test: Elevated Plus Maze test
Protocol: Method: Elevated plus maze that measures a natural fear of heights reflex of animals. AVP6 was administered intranasally at 50 μg/kg (5 μl/nostril) to the animals 17 h before the experiment.
The elevated plus-maze test was performed as follows. Each mouse was placed in the center of the elevated plus maze and allowed to freely explore undisturbed for 10 min. After each testing, the mouse was returned to the home cage and the arena was cleaned with 70% ethanol before the commencement of the next test. Analysis of the behavioral activity (percentage of time spent in the center zone, closed arms, and open arms; as well as the number of open arm entries) was done by the Smart v3.0 software.
(§1) Starting from 3 weeks of age, WT C57B16 and homozygous Hgsnat^P304L male and female mice were randomly divided in treatment and control groups (6-13 mice/sex/genotype/treatment; see Table I). The control group was daily administered with saline (5 μL to each nostril), while for the treatment group, saline was supplemented with 125 µg of AVP6/mL, which would result in a dose of approximately 50 μg/kg BW/day. The peptide formulation was prepared once, aliquoted and kept frozen at −80° C. until use. At 4 months, all mice were studied by EPM, OF, YM and NOR behavioral tests. Administration of the drug or saline was continued through the days on which the assays were conducted. Then approximately at 5 months 4-5 mice in each group were sacrificed. Their blood plasma was collected, and their tissues were either snap-frozen or fixed and cryopreserved to analyze CNS pathology as described above. For the remaining mice, treatment was continued and their behaviour was studied again at the age of 6 months using OF. NOR and YM tests. Starting from the age of 8 months, Hgsnat^P304L treated and untreated mice were daily studied for the signs of urinary retention. When such signs were detected, the mice were studied by ERG and sacrificed within 1-2 days. Finally, the remaining treated and untreated WT mice were studied by ERG and sacrificed at the end of the study, approximately at 10 months of age.

[2] = test system: Hgsnat-Geo and Hgsnat^P304L MPS IIIC mice; test: Novel Object Recognition test; conditions: single dose 17 hours before the test
[3] = test system: Hgsnat-Geo and Hgsnat^P304L MPS IIIC mice; test: Novel Object Recognition test
Protocol: Method: Novel object recognition test that studies working memory of mice by measuring their ability to discriminate a familiar from a novel object. AVP6 was administered intranasally at a daily dose 50 μg/kg (5 μl/nostril) for 10 consecutive days before the experimental day.
Novel object recognition test was used for assessing short-term recognition memory. Mice were placed individually in a 44×33×20 cm (length×width×height) testing chamber with white Plexiglas walls for 10 min habituation period and returned to their home cage. The next day, mice were placed in the testing chamber for 10 min with two identical objects (red plastic towers, 3×1.5×4.5 cm), returned to the home cages, and 1 hour later, placed back into the testing chamber in the presence of one of the original objects and one novel object (a blue plastic base, 4.5×4.5×2 cm) for 10 min. After each mouse, the test arena as well as the plastic objects were cleaned with 70% ethanol to avoid olfactory cue bias. The discrimination index (DI) was calculated as the difference of the exploration time between the novel and old object divided by total exploration time.
as §1, with “Finally, the remaining treated and untreated WT mice were studied by ERG and sacrificed at the end of the study, approximately at 10 months of age.” left out
The ability of the peptide to improve the memory deficits was tested in the 4-months-old Hgsnat-Geo mice using the Novel Object Recognition (NOR) test that studies working memory of mice by measuring their ability to discriminate a familiar object a novel one. […] Immediately after the test, mice were sacrificed and the levels of mature BDNF protein were measured in their hippocampi by immunoblot.

[4] = test system: Hgsnat^P304L MPS IIIC mice; test: Y-Maze test; conditions: chronic daily intranasal 50 μg/kg BW from 3 weeks
Protocol: The spontaneous alternation behavior, spatial working memory and exploratory activity of mice were evaluated using a white Y-maze as follows. The maze consisted of three identical white Plexiglas arms (40×10×20 cm, 120° apart) under dim lighting conditions. Each mouse was placed at the end of one arm, facing the center, and allowed to explore the maze for 8 min. All experiments were performed at the same time of the day and by the same investigator to avoid circadian and handling bias. Sessions were video-recorded and arm entries were scored by a trained observer, unaware of the mouse genotype or treatment. Successful alternation was defined as consecutive entries into a new arm before returning to the two previously visited arms.
Alternation was calculated as: [number of alternations/total number of arm entries−2]×100.
Starting from 3 weeks of age, WT C57B16 and homozygous Hgsnat^P304L male and female mice were randomly divided in treatment and control groups (6-13 mice/sex/genotype/treatment; see Table I). The control group was daily administered with saline (5 μL to each nostril), while for the treatment group, saline was supplemented with 125 µg of AVP6/mL, which would result in a dose of approximately 50 μg/kg BW/day. […] When such signs were detected, the mice were studied by ERG and sacrificed within 1-2 days. […]

[5] = chronic daily intranasal 50 μg/kg BW from 3 weeks, Hgsnat^P304L mice at 4 months

AVP6: N-terminally acetylated Semax, a nootropic peptide having the amino acid sequence of MEHFPGP (SEQ ID NO:1) (Ac-MEHFPGP)
reduced fear (open arm entries, time in open arms), Elevated Plus Maze [1, 5]: showed no difference from their WT counterparts; also recorded: show the rescue of all above deficits | Elevated Plus Maze parameters in WT mice ([1]; chronic daily treatment, WT mice at 4 months): no effect of the drug was detected in the WT mice | reduced fear/anxiety, Elevated Plus Maze ([1]; single intranasal 50 μg/kg 17 h before test, Hgsnat-Geo mice, 6 months): showed a behavior similar to their WT counterparts; also recorded: also rescues reduced anxiety in EPM test | reduced fear (time spent in open arms, number of open arm entries), Elevated Plus Maze ([1]; single intranasal 50 μg/kg 17 h before test, Hgsnat^P311L (P304L) mice, 4 months): rescues reduced fear; also recorded: showed a behavior similar to their WT counterparts; also recorded: Both parameters are normalized | behaviour in Novel Object Recognition test after single dose [2]: did not improve behaviour | short-term memory deficit, Novel Object Recognition ([3]; chronic 50 μg/kg BW/day, Hgsnat^P304L mice at 6 months): partially rescues deficits in spatial and short-term memory | short-term memory deficit (discrimination and recognition indexes), Novel Object Recognition [3, 5]: rescues deficits in spatial and short-term memory; also recorded: show the rescue of all above deficits | working (short-term) memory deficit: discrimination index and recognition index, Novel Object Recognition ([3]; intranasal 50 μg/kg daily for 10 consecutive days, 4-month-old Hgsnat-Geo mice): significantly recovered memory deficits; also recorded: rescues working memory deficits; also recorded: This deficit is rescued | discrimination index and recognition index in WT mice, Novel Object Recognition ([3]; intranasal 50 μg/kg daily for 10 days, WT mice vs saline): trend for an increase | spatial memory (alternation between arms), Y-Maze ([4]; Hgsnat^P304L mice at 4 months): a significant difference between saline-treated and peptide-treated mice was observed only, when we pooled the data for both sexes together; also recorded: rescues deficits in spatial and short-term memory; also recorded: show the rescue of all above deficits | spatial memory (percent of alternation between arms), Y-Maze ([4]; Hgsnat^P304L mice at 6 months): demonstrated alternation similar to that of the WT mice; also recorded: partially rescues deficits in spatial and short-term memory; also recorded: show rescue of all above deficits
